In patent US11559530B2, “Oral testosterone undecanoate therapy” (Lipocine Inc., priority 2016, dated 2023):

Test: Clinical study of oral TU testosterone therapy in hypogonadal males: serum testosterone Cavg and Cmax responder analysis
Assay type: in vivo, human
Settings: with food
Protocol: The dosage form from Example B of Composition 4 with dosing regimen (Regimen #9-16) of dosing category BID-equal dose with daily dose range 150-600 mg were used for a Clinic Study of Testosterone Therapy for hypogonadal males.
The clinical study was a randomized double-blind, placebo-controlled dose escalating study of the safety, efficacy, tolerability, and pharmacokinetics of testosterone therapy in hypogonadal males. This clinic study was a single and multiple, ascending-dose study that was designed to determine the optimal starting, titration (if appropriate), or single fixed dose for safety and efficacy targeted by the US FDA. The study also verified the time for testosterone levels to reach steady state and identified a suitable fixed dose dosing regimen that satisfies an unmet need for safety and efficacy for oral TT.
This study was carried out with conditions of a single-center, randomized, double-blind, placebo-controlled, ascending multiple-dose, and serial-group in adult hypogonadal male subjects. The objectives of this study were: • a) To assess the safety, efficacy, and tolerability of escalating single and multiple oral doses of TU dosage forms in hypogonadal males • b) To determine the pharmacokinetics (PK) of testosterone (T), DHT, TU, DHTU, and estradiol (E2) after single and multiple oral doses of TU dosage forms in hypogonadal males • C) To identify a fixed dose dosing regimen satisfying US FDA targets, without needing to titrate, for restoring serum T levels in hypogonadal males to the normal T range.
The dosing regimen for this clinical study ranged from 150 mg daily dose (75 mg BID dose) to 600 mg daily dose (300 mg BID dose). Observed pharmacokinetic parameters (T, DHT, TU, DHTU, and E2) after single and multiple oral doses of TU dosage forms in the patients were recorded in connection with each daily dose listed in the report.
The overall analyzed results of this clinical study were plotted according to % of patients for safety (Cmax<1,500 ng/dL) and efficacy (Cavg>300 ng/dL) with a variety of dosing regimens. Note that only doses that were multiples of 75 mg were tested in the clinical study, the results predicted for the other doses are estimated from these values.

[1] = Regimen #1, TID-equal dose, TU 75/75/75 mg
[2] = Regimen #2, TID-equal dose, TU 112/112/112 mg
[3] = Regimen #3, TID-equal dose, TU 125/125/125 mg
[4] = Regimen #4, TID-equal dose, TU 150/150/150 mg
[5] = Regimen #5, TID-equal dose, TU 188/188/188 mg
[6] = Regimen #6, TID-equal dose, TU 225/225/225 mg
[7] = Regimen #7, TID-equal dose, TU 237/237/237 mg
[8] = Regimen #8, TID-equal dose, TU 250/250/250 mg
[9] = Regimen #9, BID-equal dose (AM/PM), TU 75/75 mg
[10] = Regimen #10, BID-equal dose (AM/PM), TU 150/150 mg
[11] = Regimen #11, BID-equal dose (AM/PM), TU 215/215 mg
[12] = Regimen #12, BID-equal dose (AM/PM), TU 225/225 mg
[13] = Regimen #13, BID-equal dose (AM/PM), TU 237/237 mg

CCCCCCCCCCC(=O)O[C@H]1CC[C@H]2[C@@H]3CCC4=CC(=O)CC[C@]4(C)[C@H]3CC[C@]12C [TU, testosterone undecanoate]
Cavg >300 ng/dL ≥75% patients [1]: No
Cavg >300 ng/dL ≥80% patients [1]: No
Cavg >300 ng/dL ≥75% patients [2]: No
Cavg >300 ng/dL ≥80% patients [2]: No
Cavg >300 ng/dL ≥75% patients [3]: No
Cavg >300 ng/dL ≥80% patients [3]: No
Cavg >300 ng/dL ≥75% patients [4]: Yes
Cavg >300 ng/dL ≥80% patients [4]: Yes
Cavg >300 ng/dL ≥75% patients [5]: Yes
Cavg >300 ng/dL ≥80% patients [5]: Yes
Cavg >300 ng/dL ≥75% patients [6]: Yes
Cavg >300 ng/dL ≥80% patients [6]: Yes
Cmax > 1500 ng/dL <15% patients [6]: No
Cmax > 1500 ng/dL <20% patients [6]: Yes
Cmax > 1800 ng/dL <5% patients [6]: No
Cmax > 1800 ng/dL <10% patients [6]: Yes
Cmax > 2500 ng/dL <2% patients [6]: Yes
Cmax > 2500 ng/dL none of patients [6]: No
Cavg >300 ng/dL ≥75% patients [7]: Yes
Cavg >300 ng/dL ≥80% patients [7]: Yes
Cmax > 1500 ng/dL <15% patients [7]: No
Cmax > 1500 ng/dL <20% patients [7]: Yes
Cmax > 1800 ng/dL <5% patients [7]: No
Cmax > 1800 ng/dL <10% patients [7]: Yes
Cmax > 2500 ng/dL <2% patients [7]: No
Cmax > 2500 ng/dL none of patients [7]: No
Cavg >300 ng/dL ≥75% patients [8]: Yes
Cavg >300 ng/dL ≥80% patients [8]: Yes
Cmax > 1500 ng/dL <15% patients [8]: No
Cmax > 1500 ng/dL <20% patients [8]: No
Cmax > 1800 ng/dL <5% patients [8]: No
Cmax > 1800 ng/dL <10% patients [8]: No
Cmax > 2500 ng/dL <2% patients [8]: No
Cmax > 2500 ng/dL none of patients [8]: No
Cavg >300 ng/dL ≥75% patients [9]: No
Cavg >300 ng/dL ≥80% patients [9]: No
Cmax > 1500 ng/dL <15% patients [9]: Yes
Cmax > 1500 ng/dL <20% patients [9]: Yes
Cmax > 1800 ng/dL <5% patients [9]: Yes
Cmax > 1800 ng/dL <10% patients [9]: Yes
Cmax > 2500 ng/dL <2% patients [9]: Yes
Cmax > 2500 ng/dL none of patients [9]: Yes
Cavg >300 ng/dL ≥75% patients [10]: No
Cavg >300 ng/dL ≥80% patients [10]: No
Cmax > 1500 ng/dL <15% patients [10]: Yes
Cmax > 1500 ng/dL <20% patients [10]: Yes
Cmax > 1800 ng/dL <5% patients [10]: Yes
Cmax > 1800 ng/dL <10% patients [10]: Yes
Cmax > 2500 ng/dL <2% patients [10]: Yes
Cmax > 2500 ng/dL none of patients [10]: Yes
Cavg >300 ng/dL ≥75% patients [11]: Yes
Cavg >300 ng/dL ≥80% patients [11]: No
Cmax > 1500 ng/dL <15% patients [11]: Yes
Cmax > 1500 ng/dL <20% patients [11]: Yes
Cmax > 1800 ng/dL <5% patients [11]: Yes
Cmax > 1800 ng/dL <10% patients [11]: Yes
Cmax > 2500 ng/dL <2% patients [11]: Yes
Cmax > 2500 ng/dL none of patients [11]: Yes
Cavg >300 ng/dL ≥75% patients [12]: Yes
Cavg >300 ng/dL ≥80% patients [12]: Yes
Cmax > 1500 ng/dL <15% patients [12]: Yes
Cmax > 1500 ng/dL <20% patients [12]: Yes
Cmax > 1800 ng/dL <5% patients [12]: Yes
Cmax > 1800 ng/dL <10% patients [12]: Yes
Cmax > 2500 ng/dL <2% patients [12]: Yes
Cmax > 2500 ng/dL none of patients [12]: Yes
Cavg >300 ng/dL ≥75% patients [13]: Yes
Cavg >300 ng/dL ≥80% patients [13]: Yes
Cmax > 1500 ng/dL <15% patients [13]: Yes
Cmax > 1500 ng/dL <20% patients [13]: Yes
Cmax > 1800 ng/dL <5% patients [13]: Yes
Cmax > 1800 ng/dL <10% patients [13]: Yes
Cmax > 2500 ng/dL <2% patients [13]: Yes
Cmax > 2500 ng/dL none of patients [13]: Yes
